This note sets out measurements from publication PMC12267067, “Targeting GRPR for sex hormone-dependent cancer after loss of E-cadherin” (Nature, 2025).

What all share (assay type): cell-based
Test [1] relates to Yap1 in Grpr+ mouse melanoma cells (1057). Kind of test: YAP1 nuclear localization (immunofluorescence). Particulars: 1057 cells, 1 h, 10 nM GRP and/or 1 µM RC. On the procedure:
Cells were seeded on coverslips and cultivated until 100% confluence was achieved. After 24 h of starvation in 0.5% FCS for murine melanoma cell lines and 1% FCS for human melanoma, the medium was complemented with 10 nM GRP and/or 1 µM RC for 1 h. Cells were fixed with 4% PFA for 15 min and blocked with 5% normal goat serum and 0.3% Triton X-100 in PBS. Cells were incubated overnight at 4 °C with anti-YAP D8H1X antibody (14074, cell Signaling, 1/100 dilution) in 1% BSA and 0.3% Triton X-100 followed by incubation for 1.5 h at room temperature with goat anti-rabbit Alexa fluor 594 (A-11012, Invitrogen, 1/500 dilution). Coverslips were mounted with Prolong Gold containing 1.5 µg ml^−1 DAPI (P36934, Invitrogen). Images were acquired using an inverted SP8 Leica confocal microscope (Leica Microsystem). YAP1 localization was evaluated using ImageJ Software.

The test system of test [2] is mouse melanoma cell lines (1057, 1064, 1181, 1039, 1456, 1014). Kind of test: Matrigel invasion assay, mouse melanoma cells. Particulars: 24 h. Here is the method:
Matrigel invasion assays were done in transwell plates with 8.0-µm pores (353097, Falcon) coated with 100 µl of 200 µg ml^−1 Matrigel. Depending on the experiments, cells were seeded directly or 24 h after transfection in low-serum medium (0.5% FCS for murine cells and 1% for human cell lines) with 10 nM GRP, 1 µM RC-3095, and/or 1 µM IC 182,780, or in 10% FCS. Then, 24 hours after stimulation, inserts were washed with PBS and non-invading cells were removed. Cells in the inserts were fixed in methanol at −20 °C overnight. The inserts were rinsed and the membrane carefully removed using a sharp scalpel. The membrane was mounted in prolong glass DAPI (1.5 µg ml^−1). Assays were performed in triplicate and automatic counting of invading cells was done using an Image/Fiji macro (10.5281/zenodo.14509394). Sequences of siRNAs are given in Supplementary Table 11.

Test [3] concerns mouse melanoma cells (1057, 1014, 1062). Kind of test: Anoikis assay, mouse melanoma cells. Particulars: 48 h. Here is the method: Six-well plates were coated with poly-HEMA to prevent cell attachment to the well surface. Cells were seeded in low-serum medium containing 10 nM GRP and/or 1 µM RC. Then, 48 hours after cell seeding, cells were collected and washed with ice-cold PBS twice and resuspended in annexin V binding buffer (556454, BD Biosciences) and incubated at room temperature in the dark with 7-amino-actinomycin D (7-AAD, 559925, BD Biosciences) and annexin-V for 15 min. Annexin V was coupled to FITC (556420, BD Biosciences) for the 1057 and MDA-MB-435S cell lines and to PE (556421, BD Biosciences) for the other cell lines. Cells were sorted using a FACS LSRFortessa (BD Biosciences) to determine the percentage of annexin V- and/or 7-AAD-positive cells using a 488 nm laser for annexin V-FITC and annexin V-PE and a 675 nm laser for7-AAD. All quantification was performed using Flow-Jo.

No end group written: not given here.

With “GRP: GRPR's natural agonist, endogenous ligand of GRPR (4011670 bachem) (VPLPAGGGTVLTKMYPRGNHWAVGHLM; not fully specified; ends and bridges not checked; UniProt P07492 24-50, looked up)”, the YAP1 nuclear localization entry in test [1] is recorded as “increased”. Also, in test [2] (1057 (also 1064, GRPR-transduced 1014 and 1181 for RC-3095), 10 nM GRP, 1 µM RC-3095 and/or 1 µM ICI, Matrigel 200 µg ml−1, 0.5% FCS), the “invasion (number of invading cells), GRPR-positive mouse lines” value is “promoted invasion”. For the same substance, the “invasion (number of invading cells), Grpr-negative mouse lines” value in test [2] (1181 male Ecad, 1039 female Ecad, 1456 male ΔEcad, 10 nM GRP and/or 1 µM ICI) is “but not in Ecad-positive (1181 male and 1039 female) or Ecad-negative male (1456) cells”. Moreover, the “anoikis resistance (apoptotic cells without matrix attachment), GRPR+ mouse cells” value in test [3] (1057, 10 nM GRP and/or 1 µM RC, poly-HEMA, low serum, annexin V/7-AAD) was “promoted”. The “anoikis resistance, Grpr-negative mouse cells” value in test [3] (male ∆Ecad (1062) and female Ecad (1014) cells, 10 nM GRP) was “did not promote anoikis resistance”.
